From US20180280480A1, “COMPOSITIONS AND PEPTIDES HAVING DUAL GLP-1R AND GLP-2R AGONIST ACTIVITY” (priority 2014, published 2018) come the findings set out here.

Assay [1] relates to C57BL/6J mice. The experiment in a line: Acute food intake in C57BL/6J mice. The class given is in vivo. To be noted: for Total food intake (g/animal): Day 0: 0-[…] (lights off), mean ± SEM. How it is done:
The C57BL/6J mice arrived 7 days prior to the initiation of the study. During these days, animals were handled daily to accustom them to the experimental paradigm. At Day −1, the mice were randomised according to body weight to participate in one of following drug treatment groups (n=6-8 in each group): Group 1: vehicle. […] Group 3-5: SEQ ID NO 3; 3.0; 1.0; 0.3 mg/kg. Group 6-8: SEQ ID NO 4; 3.0; 1.0; 0.3 mg/kg. Group 9-11: SEQ ID NO 5; 3.0; 1.0; 0.3 mg/kg. Group 12-14: SEQ ID NO 6; 3.0; 1.0; 0.3 mg/kg. Group 15-17: SEQ ID NO 7; 3.0; 1.0; 0.3 mg/kg. Three days prior to initiation of dosing, all animals were handled daily and accustomed to the experimental conditions by subcutaneous mock injections (i.e. nipping the skin of the back). Baseline food intake was monitored four days prior to the study. Mice were randomized according to body weight on Day −1. Animals were subjected to two separate injections. First acute dose was administered prior to lights out at Day 0 and food intake was monitored 24 hours post dosing. On Day 3, mice were re-randomised into new treatment groups and dosed prior to lights out. Food intake was monitored 24 hours post dosing. Body weight was measured daily from Day −5 and throughout the study. The study was terminated on Day 5. […] Dosing took place prior to lights out in the afternoon (between 13.30 and 14.00). Doses were administered subcutaneously (dose volume 5 ml/kg). Food intake data was collected using the HM-2 system, an online computerized feeding system using digital weighing cells. Food intake and body weight were measured from Day −7 and throughout the study. […]

Assay [2] relates to C57BL/6J mice. The experiment in a line: GLP1R-GLP2R dual agonist compound study: oral glucose tolerance test. It is filed as in vivo. How it is done: On day 7, an oral glucose tolerance test (OGTT) was performed. Animals were mildly fasted as all food was removed 4 hours prior to the oral glucose load. Vehicle (SC) and compounds were administered subcutaneously (SC) 2 hours prior to the OGTT. At t=0 mice received an oral glucose load (2 g/kg; 4 ml/kg; 500 mg/ml, Fresenius Kabi, Sweden). Glucose was given as gavage via a gastrically-placed tube connected to a syringe ensuring accurate dosing. Blood glucose was measured from tail vein blood before glucose (at t=−120 and 0 min, baseline) and after glucose administration at t=15, 30, 60 and 120 min. Blood samples (tail vein) was collected into 10 μl heparinized glass capillary tubes and immediately suspended in buffer (0.5 ml of glucose/lactate system solution (EKF-diagnostics, Germany) and analyzed for glucose on the test day using a BIOSEN c-Line glucose meter (EKF-diagnostics, Germany) according to manufacturer's instructions. Results from the OGTT are listed below in Table 11.

The subject of assay [3] is C57BL/6J mice. Description: GLP1R-GLP2R dual agonist compound study: gut wet weight. The class given is in vivo. The source says: On study day 8, the mice were terminated and the GI tract was removed for determination of the gut wet weight. The gut wet weight results are listed below in Table 12.
Assay [4] deals with C57BL/6J mice. The experiment in a line: GLP1R-GLP2R dual agonist compound study: cumulative food intake. It is filed as in vivo. The source says: Forty (40, n=10, 4 groups) male C57BL/6J mice obtained from Taconic, Denmark, were used. At the time of the experiment, the mice had reached an age of 9-10 weeks. The mice were acclimatized for one week in their new environment and offered regular chow diet (Altromin 1324, Brogaarden A/S, Denmark) and domestic quality tap water. Animals were housed two per cage during the study, in a light-, temperature-, and humidity-controlled room (12-hour light: 12-hour dark cycle, lights on/off at 4 AM/4 PM hour; 22±1° C.; 50±10% relative humidity). […] Animals were uniquely identified with implantable microchips (Pet ID Microchip, E-vet) in all mice upon arrival. Animals were identified using the WS-2 weight station (MBrose ApS, Faaborg, Denmark) connected to a laptop running the HM02Lab software (Ellegaard Systems, Faaborg, Denmark). The HM02Lab software matches the body weight with ID and calculates the dose directly based on the body weight. All mice were handled for 3 days prior to the experiment to acclimatize the animals to handling and injections.

The next assay concerns the target human GLP-1 receptor (human, UniProt P43220 24-463, limits assumed). Description: cell-based or functional assay.
Another assay has as its target T1, human GLP-2 receptor (human, UniProt O95838 1-553, limits assumed).
T1 sequence (looked up): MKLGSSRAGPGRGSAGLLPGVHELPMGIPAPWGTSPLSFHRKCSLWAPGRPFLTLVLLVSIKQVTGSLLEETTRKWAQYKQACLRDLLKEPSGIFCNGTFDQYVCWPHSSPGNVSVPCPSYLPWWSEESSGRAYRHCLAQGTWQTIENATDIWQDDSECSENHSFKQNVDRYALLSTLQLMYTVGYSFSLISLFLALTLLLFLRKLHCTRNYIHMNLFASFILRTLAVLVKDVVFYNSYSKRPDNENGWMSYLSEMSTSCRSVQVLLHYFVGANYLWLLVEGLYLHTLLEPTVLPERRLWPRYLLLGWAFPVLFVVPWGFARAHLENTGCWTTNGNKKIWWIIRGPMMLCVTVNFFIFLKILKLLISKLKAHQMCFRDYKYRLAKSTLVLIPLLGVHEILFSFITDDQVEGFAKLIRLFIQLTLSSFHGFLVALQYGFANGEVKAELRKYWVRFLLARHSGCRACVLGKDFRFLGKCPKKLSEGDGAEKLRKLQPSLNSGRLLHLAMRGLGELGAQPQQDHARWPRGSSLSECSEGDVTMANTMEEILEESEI
Description: cell-based or functional assay.

Numbered stars: 1 amine (or outer) side, 2 acyl side, 3 side chain; on linkers, the order of the positions; unused ones are H or OH. Side chains are listed from the residue outwards. Ends that are not written are not given here. * marks the point of attachment. γGlu = O=C(O)[C@H](CCC(=O)[*:2])N[*:1]; Palmitoyl = CCCCCCCCCCCCCCCC(=O)*

Take “HGDGSFTSELSTYLDNLAARDFINWLIQTKITD-NH2 (C-terminus assumed) [SEQ ID NO 7, R^1-HGDGSFTSELSTYLDNLAARDFINWLIQTKITDR^2]”: the “Total food intake (g/animal)” value with C57BL/6J mice [1] (single SC dose 0.3 mg/kg) came out at 1.05 ± 0.41 g/animal; with C57BL/6J mice [1] (single SC dose 1 mg/kg), 0.47 ± 0.08 g/animal; in the assay with C57BL/6J mice [1] (single SC dose 3 mg/kg), 0.28 ± 0.12 g/animal. In addition, the “food intake after […] compared to vehicle” value in the assay with C57BL/6J mice [1] (single dose 1-3 mg/kg) is on record as “significantly reduced food intake”.
As for “R^1-HGDGSFTDELSTYLDALAARDFIAWLIQTKR^2 [SEQ ID NO 3]”, in the assay on C57BL/6J mice [2] (Day 7, 3.0 mg/kg BID SC, glucose 2 g/kg oral, mean ± S.E.M.), the “Oral glucose tolerance test AUC, 0-120 min” value was 503 ± 97 mmol·min/L. Further, the “blood glucose compared to vehicle and teduglutide” value in the assay with C57BL/6J mice [2] (dosed twice daily for 7 days) is “significantly reduced fasting blood glucose”. Also, in the assay with C57BL/6J mice [3] (Day 8, 3.0 mg/kg BID SC, mean ± S.E.M.), the Gut wet weight is given as 3.3 ± 0.2 g. The “gut wet weight compared to vehicle and teduglutide” value with C57BL/6J mice [3] (dosed twice daily for 8 days) was “significantly increased the gut wet weight”. The Cumulative food intake with C57BL/6J mice [4] (Day 0-7, 3.0 mg/kg BID SC, mean ± S.E.M.) stood at 26.03 ± 2.49 g. Further, the “cumulative food intake compared to vehicle and teduglutide” value with C57BL/6J mice [4] (dosed twice daily for 7 days) is on record as “considerably reduced cumulative food intake”. The results for the “Total food intake (g/animal)” value in the assay with C57BL/6J mice [1] (single SC dose 0.3 mg/kg), in the assay on C57BL/6J mice [1] (single SC dose 1 mg/kg) and with C57BL/6J mice [1] (single SC dose 3 mg/kg) were 0.76 ± 0.37 g/animal, 0.66 ± 0.15 g/animal and 0.30 ± 0.08 g/animal, respectively.
In the case of “R^1-HGDGSFTDELSTYLDNLAARDFIAWLIQTKITDR^2 [SEQ ID NO 5]”, the entries for the “Total food intake (g/animal)” value in the assay on C57BL/6J mice [1] (single SC dose 0.3 mg/kg), in the assay with C57BL/6J mice [1] (single SC dose 1 mg/kg) and in the assay on C57BL/6J mice [1] (single SC dose 3 mg/kg) were 0.69 ± 0.19 g/animal, 0.83 ± 0.18 g/animal and 0.26 ± 0.08 g/animal, respectively.
For “R^1-HGDGSFTSELSTYLDALAARDFINWLIQTKR^2 [SEQ ID NO 4]”, in that order: 0.93 ± 0.06 g/animal, 0.79 ± 0.15 g/animal and 0.25 ± 0.08 g/animal.
In the case of HGDGSFTSELSTYK([γGlu-Palmitoyl])DALAARDFIAWLIQTKITD [SEQ ID NO 23], in the assay with human GLP-1 receptor, the “GLP-1R, EC50” value stood at 0.169 nM. Moreover, in the assay with human GLP-2 receptor, the “GLP-2R, EC50” value was determined as 1.06 nM.
On to HGDGSFK([γGlu-Palmitoyl])SELSTYLDALAARDFIAWLIQTKITD [SEQ ID NO 19], for which, in the assay with human GLP-1 receptor, the “GLP-1R, EC50” value was more than 10 nM. Further, in the assay with human GLP-2 receptor, the “GLP-2R, EC50” value is more than 100 nM.
For HGDGSFTSELK([γGlu-Palmitoyl])TYLDALAARDFIAWLIQTKITD [SEQ ID NO 21], in that order: more than 10 nM and 4.25 nM.
For HGDGSFTSELSK([γGlu-Palmitoyl])YLDALAARDFIAWLIQTKITD [SEQ ID NO 22], in that order: 0.543 nM and 6.61 nM.
The like results for HGDGSFTSELSTYLDAK([γGlu-Palmitoyl])AARDFIAWLIQTKITD [SEQ ID NO 25] were, in that order, 0.319 nM and 1.93 nM.
Consider HGDGSFTSELSTYLDALAAK([γGlu-Palmitoyl])DFIAWLIQTKITD [SEQ ID NO 26], for which, in the assay with human GLP-1 receptor, the “GLP-1R, EC50” value was found to be 0.658 nM. For the same molecule, in the assay with human GLP-2 receptor, the “GLP-2R, EC50” value was more than 100 nM.
For HGDGSFTSELSTYLDK([γGlu-Palmitoyl])LAARDFIAWLIQTKITD [SEQ ID NO 24], in that order: 0.338 nM and 5.6 nM.
